The subject of one data set is HT-29. Briefly: Sensitization of human HT-29 cells to BCNU-induced cytotoxicity assessed as survival treated for 2 hrs before BCNU challenge measured after 16 to 18 hrs by colony forming assay. It is filed as functional, cell-based.
The target in data set [1] is T1, Methylated-DNA--protein-cysteine methyltransferase (Homo sapiens) (UniProt P16455).
T1 sequence (whole entry): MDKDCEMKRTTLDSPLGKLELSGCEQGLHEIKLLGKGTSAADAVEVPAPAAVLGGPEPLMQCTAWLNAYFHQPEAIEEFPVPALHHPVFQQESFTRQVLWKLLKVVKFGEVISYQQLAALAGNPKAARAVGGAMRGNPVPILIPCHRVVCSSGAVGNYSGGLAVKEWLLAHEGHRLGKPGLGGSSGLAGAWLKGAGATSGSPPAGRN
Description: Inactivation of histidine6-tagged wild type human recombinant O-6-alkylguanine-DNA-alkyltransferase expressed in Escherichia coli assessed as [3H]methylated protein formation in presence of [3H]methylated calf thymus DNA

Data set [2] concerns the target T1, Methylated-DNA--protein-cysteine methyltransferase (Homo sapiens). This is another data set of the same source.
Description: Inactivation of histidine6-tagged wild type human recombinant O-6-alkylguanine-DNA-alkyltransferase expressed in Escherichia coli assessed as [3H]methylated protein formation in absence of [3H]methylated calf thymus DNA
Data set [3] has as its system T2, Methylated-DNA--protein-cysteine methyltransferase (Homo sapiens), P16455 [S159A].
T2 sequence (whole entry): T1 sequence (whole entry) with S159A
Description: Inactivation of histidine6-tagged human recombinant O-6-alkylguanine-DNA-alkyltransferase S159A mutant expressed in Escherichia coli assessed as [3H]methylated protein formation in absence of [3H]methylated calf thymus DNA

The test system is the same in data set [4]. The source holds these as a separate data set.
Description: Inactivation of histidine6-tagged human recombinant O-6-alkylguanine-DNA-alkyltransferase S159A mutant expressed in Escherichia coli assessed as [3H]methylated protein formation in presence of [3H]methylated calf thymus DNA
Data set [5] concerns the target T1, Methylated-DNA--protein-cysteine methyltransferase (Homo sapiens). Briefly: Inactivation of human O-6-alkylguanine-DNA-alkyltransferase in human HT-29 cells at 1 uM after 30 mins by reverse-phase HPLC in presence of [3H]methylated calf thymus DNA.
Data set [6] shares this target. In words: Inactivation of histidine6-tagged human recombinant O-6-alkylguanine-DNA-alkyltransferase expressed in Escherichia coli assessed as [3H]methylated protein formation at 1 mM.
Data set [7] can be described thus: Stability assessed as N6-[2-(hydroxymethyl)-benzyl]-2-aminoadenine formation in aqueous solution. The format is physicochemical. The conditions noted are these: buffer.

These results are taken from ChEMBL document CHEMBL1152301, “Substitution of aminomethyl at the meta-position enhances the inactivation of O6-alkylguanine-DNA alkyltransferase by O6-benzylguanine” (J Med Chem, 2008).

The term inhibition denotes the share of the control response that was lost under treatment.

Numbering of substitutions follows the chain as printed. Calls of active or inactive are those of the source. The rule behind the calls is not given here.

For the compound `NCc1ccc(COc2nc(N)nc3nc[nH]c23)cc1`, the result with HT-29 was Active. The ED50 is 0.053 µM in data set [1], 0.23 µM in data set [2], 0.16 µM in data set [3] and 0.028 µM in data set [4]. For the same compound, the inhibition in data set [5] came out at 20%.

As for `Cc1cccc(COc2nc(N)nc3nc[nH]c23)c1`, the ED50 in data set [1] came to 0.16 µM; in data set [2] it was 0.25 µM.

In the case of `NCc1ccccc1COc1nc(N)nc2nc[nH]c12`, the ED50 in data set [1] was determined as 45 µM; in data set [2] it was 80 µM.

Regarding `Cc1ccc(COc2nc(N)nc3nc[nH]c23)cc1`, the ED50 in data set [2] came to 0.32 µM.

As to `Nc1nc(NCc2ccccc2CO)c2[nH]cnc2n1`, the inhibition in data set [6] was less than 10%. Further, the t1/2 in data set [7] is 50 h. Moreover, the ED50 in data set [1] and in data set [2] was greater than 1000 µM in each case.

On to `Cc1ccccc1COc1nc(N)nc2nc[nH]c12`, for which the figures for the ED50 in data set [1] and in data set [2] were 90 µM and 185 µM, respectively.
